From paper PMC9368227, “Investigation of Radiotracer Metabolic Stability In Vitro with CYP-Overexpressing Hepatoma Cell Lines” (Cells, 2022)

Test: Radiotracer incubation in buffer only (control, without any cell line), radio-TLC
Format: in vitro ADME
Settings: reference incubation without any cell lines
Protocol: HepG2 cells were cultured in DMEM GlutaMax (Gibco, Paisley, UK) with 10% fetal calf serum (FCS) and with selective antibiotics (penicillin/streptomycin for wildtype, Zeocin (InvivoGen, San Diego, CA, USA) for CYP1A2, and Blasticidin (Gibco, Carlsbad, CA, USA) for CYP2C19 and CYP3A4 cultures). As a negative control, cultures of CHO cultivated in Ham’s F-12 medium (Gibco) with 10% FCS and 2 mM glutamine were added for the radiotracer experiments. Cells were handled under a laminar flow hood (Thermo Scientific^TM Safe 2020, Langenselbold, Germany) and were split once or twice a week by trypsinization. Cell cultures were stored horizontally in a humidified incubator (Heracell240i) at 37 °C and 5% CO2. During the time of experimental work, the utilized cell lines were regularly checked for mycoplasma. Cells were seeded in duplicates into a 96-well plate (CellStar®) with a density of 3 × 10^5 cells/well and cultured until the next day at 37 °C and 5% CO2. Cell density was determined with a cell counter (CASY® Model TT from Schärfe System, Reutlingen, Germany). Before the addition of substrates, cells were washed twice with Krebs–Henseleit buffer (KHB). The HEPES-supplemented Krebs–Henseleit buffer (pH 7.4, KHB) was freshly prepared using HEPES (5.95 g/L), D-glucose (2.0 g/L), magnesium sulfate (0.141 g/L), potassium dihydrogenphosphate (0.16 g/L), potassium chloride (0.35 g/L), sodium chloride (6.9 g/L), calcium chloride dihydrate (0.373 g/L), and sodium bicarbonate (2.1 g/L), followed by adjustment to pH 7.4 with NaOH. […]
Incubations with radiotracer compounds were conducted, on the one hand, with radioactive ^18F-labeled compounds alone (time dependency) and, on the other hand, in the presence of 50 µM nonradioactive reference (carrier addition). For the investigation of a time-dependent metabolite formation, 2 µL aliquots were withdrawn from the supernatant, directly spotted onto the TLC plate, and analyzed as described above. […]

Defluorination without additional enzymes in the incubation buffer (KHB): to a minor extent
Structure (SMILES): [2H]C([2H])([18F])c1cc(-c2ccc(C)cc2)n(-c2ccc(S(C)(=O)=O)cc2)n1 [[^18F]2, 3-([D2, ^18F]fluoromethyl)-1-[4-(methylsulfonyl)phenyl]-5-(p-tolyl)-1H-pyrazole]
